Laboratory results reported in patent US20120252729A1, “PTH-CONTAINING THERAPEUTIC/PROPHYLACTIC AGENT FOR OSTEOPOROSIS, CHARACTERIZED IN THAT PTH IS ADMINISTERED ONCE A WEEK IN A UNIT DOSE OF 100 TO 200 UNITS” (ASAHI KASEI PHARMA CORPORATION, priority 2009, published 2012).

Key:
[1] = tested on: patients diagnosed with primary osteoporosis; assay: Working Example 1: lumbar spine bone mineral density by DXA, teriparatide acetate 5 or 100 units once a week plus calcium agent; format: in vivo, human; conditions: mean ± SD
Method: Both the 5 and 100 unit groups were administered two tablets of a calcium agent (containing 500 mg of precipitated calcium carbonate [200 mg as calcium] per tablet) once a day.
The osteoporosis patients were classified as condition shown in Table 1 based on the bone fracture risk factors present, as in Non-patent Reference 13, and compared. High-risk patients were defined as having all three factors involving age, prevalent vertebral fractures, and bone density or bone atrophy; low-risk patients were defined as other than the above.

[2] = tested on: high-risk patients diagnosed with primary osteoporosis; assay: Working Example 2: bone density of lumbar spine and femur by DXA; format: in vivo, human; conditions: 200 units weekly; for Change in bone density (%), lumbar spine / Change in bone density (%), neck of femur / Change in bone density (%), proximal femur: patients taking glucocorticoid
Method: For the bone density of the femur, only the left side of the proximal part of the femur, rotated 20°, was measured at the start and every 24 weeks thereafter using dual-energy x-ray absorptiometry (DXA).

[3] = tested on: high-risk patients diagnosed with primary osteoporosis; assay: Working Example 2: CT geometry of the proximal femur (neck, trochanter, shaft); format: in vivo, human; conditions: 200 units weekly
Method: For the CT geometry, the proximal part of the femur was measured at the start and after 48 and 72 weeks using multislice CT scan.
The effects of the test drug on three parts of the femur (neck of the femur, trochanter, and shaft of the femur) were studied using ordinary CT scans.

[4] = in vivo
Method: The Lumbar spine bone mineral density and occurrence of bone fractures were checked as bone assessments. For the Lumbar spine bone mineral density, the bone density of the second to fourth lumbar spine was measured at the start and every six months thereafter using dual-energy x-ray absorptiometry (DXA). For the frequency of bone fractures, x-rays were taken from the front and side of the fourth thoracic to the fifth lumbar spine at the start and every six months thereafter, and new vertebral fractures were assessed by comparison of the roentgen films at the start and at each point in time thereafter using the method of Genant et al. (Non-patent Reference 14) as a reference. In locations other than the vertebrae, fractures were evaluated by checking by roentgen films. Blood samples were also taken from all patients at the beginning and during administration, and the general laboratory test values, including the calcium concentration, were measured. The administration period in high-risk patients (DXA and new vertebral fractures were assessed collectively at the center; fractures of other than vertebrae were assessed by the investigator based on the roentgen films) was 85.1±20.8 weeks in the 5 unit group and 83.7±19.8 weeks in the 100 unit group. […] The administration period in low-risk patients was 72.7±19.4 weeks in the 5 unit group and 88.3±21.3 weeks in the 100 unit group.

[5] = tested on: osteoporosis patients having normal renal function, mild or moderate renal dysfunction; conditions: in vivo
Excerpt: The incidence of adverse events was studied after administering the test drug to the a group of osteoporosis patients having normal renal function, a group of osteoporosis patients having mild renal dysfunction, and a group of osteoporosis patients having moderate renal dysfunction.

[6] = history of calcium L-aspartate, 24 W
[7] = history of calcium L-aspartate, 48 W
[8] = history of calcium L-aspartate, 72 W
[9] = history of calcium lactate, 24 W
[10] = history of calcium lactate, 48 W
[11] = history of calcium lactate, 72 W
[12] = history of raloxifene hydrochloride, 24 W
[13] = history of raloxifene hydrochloride, 48 W
[14] = history of raloxifene hydrochloride, 72 W
[15] = mild impairment (≧50-<80), after 24 W
[16] = mild impairment (≧50-<80), after 48 W
[17] = mild impairment (≧50-<80), final
[18] = moderate impairment (<50), after 24 W
[19] = moderate impairment (<50), after 48 W
[20] = moderate impairment (<50), after 72 W
[21] = moderate impairment (<50), final

teriparatide acetate
Lumbar spine bone mineral density (% change) ([1]; high-risk patients, 5 units once a week, after 26 W): −0.9 ± 4.4% | Lumbar spine bone mineral density (% change) ([1]; high-risk patients, 5 units once a week, after 52 W): −0.6 ± 4.1% | Lumbar spine bone mineral density (% change) ([1]; high-risk patients, 5 units once a week, after 78 W): 0.4 ± 4.1% | Lumbar spine bone mineral density (% change) ([1]; high-risk patients, 5 units once a week, after 104 W): 0.4 ± 4.0% | Lumbar spine bone mineral density (% change) ([1]; high-risk patients, 5 units once a week, final check): −0.1 ± 4.8% | Lumbar spine bone mineral density (% change) ([1]; high-risk patients, 100 units once a week, after 26 W): 3.3 ± 4.5 % | Lumbar spine bone mineral density (% change) ([1]; high-risk patients, 100 units once a week, after 52 W): 4.3 ± 4.5 % | Lumbar spine bone mineral density (% change) ([1]; high-risk patients, 100 units once a week, after 78 W): 4.0 ± 4.5 % | Lumbar spine bone mineral density (% change) ([1]; high-risk patients, 100 units once a week, after 104 W): 4.9 ± 4.2 % | Lumbar spine bone mineral density (% change) ([1]; high-risk patients, 100 units once a week, final check): 4.5 ± 4.6 % | Lumbar spine bone mineral density (% change) ([1]; low-risk patients, 5 units once a week, after 26 W): −0.6 ± 6.4% | Lumbar spine bone mineral density (% change) ([1]; low-risk patients, 5 units once a week, after 52 W): −0.7 ± 6.2% | Lumbar spine bone mineral density (% change) ([1]; low-risk patients, 5 units once a week, after 78 W): 1.9 ± 7.5% | Lumbar spine bone mineral density (% change) ([1]; low-risk patients, 5 units once a week, final check): −0.6 ± 5.7% | Percentage change in bone density (%), lumbar spine ([2]; history of Alfacalcidol, 24 W): 3.11% | Percentage change in bone density (%), neck of femur ([2]; history of Alfacalcidol, 24 W): 1.64% | Percentage change in bone density (%), proximal femur ([2]; history of Alfacalcidol, 24 W): 2.77% | Percentage change in bone density (%), lumbar spine ([2]; history of Alfacalcidol, 48 W): 5.47% | Percentage change in bone density (%), neck of femur ([2]; history of Alfacalcidol, 48 W): 0.85% | Percentage change in bone density (%), proximal femur ([2]; history of Alfacalcidol, 48 W): 2.31% | Percentage change in bone density (%), lumbar spine ([2]; history of Alfacalcidol, 72 W): 6.47% | Percentage change in bone density (%), neck of femur ([2]; history of Alfacalcidol, 72 W): 2.19% | Percentage change in bone density (%), proximal femur ([2]; history of Alfacalcidol, 72 W): 2.31% | Percentage change in bone density (%), lumbar spine ([2]; history of calcitriol, 24 W): 3.50% | Percentage change in bone density (%), neck of femur ([2]; history of calcitriol, 24 W): −0.60% | Percentage change in bone density (%), proximal femur ([2]; history of calcitriol, 24 W): −1.40% | Percentage change in bone density (%), lumbar spine ([2]; history of calcitriol, 48 W): 4.40% | Percentage change in bone density (%), neck of femur ([2]; history of calcitriol, 48 W): −4.03% | Percentage change in bone density (%), proximal femur ([2]; history of calcitriol, 48 W): −1.05% | Percentage change in bone density (%), lumbar spine ([2]; history of calcitriol, 72 W): 6.38% | Percentage change in bone density (%), neck of femur ([2]; history of calcitriol, 72 W): −3.53% | Percentage change in bone density (%), proximal femur ([2]; history of calcitriol, 72 W): −0.04% | Percentage change in bone density (%), lumbar spine [2, 6]: 3.78% | Percentage change in bone density (%), neck of femur [2, 6]: 1.44% | Percentage change in bone density (%), proximal femur [2, 6]: 1.76% | Percentage change in bone density (%), lumbar spine [2, 7]: 6.16% | Percentage change in bone density (%), neck of femur [2, 7]: 1.88% | Percentage change in bone density (%), proximal femur [2, 7]: 2.28% | Percentage change in bone density (%), lumbar spine [2, 8]: 5.85% | Percentage change in bone density (%), neck of femur [2, 8]: 4.17% | Percentage change in bone density (%), proximal femur [2, 8]: 3.69% | Percentage change in bone density (%), lumbar spine [2, 9]: 1.96% | Percentage change in bone density (%), neck of femur [2, 9]: 0.30% | Percentage change in bone density (%), proximal femur [2, 9]: 1.78% | Percentage change in bone density (%), lumbar spine [2, 10]: 3.45% | Percentage change in bone density (%), neck of femur [2, 10]: −4.35% | Percentage change in bone density (%), proximal femur [2, 10]: −1.68% | Percentage change in bone density (%), lumbar spine [2, 11]: 4.93% | Percentage change in bone density (%), neck of femur [2, 11]: −2.53% | Percentage change in bone density (%), proximal femur [2, 11]: −3.20% | Percentage change in bone density (%), lumbar spine ([2]; history of elcatonin, 24 W): 3.95% | Percentage change in bone density (%), neck of femur ([2]; history of elcatonin, 24 W): 1.62% | Percentage change in bone density (%), proximal femur ([2]; history of elcatonin, 24 W): 3.86% | Percentage change in bone density (%), lumbar spine ([2]; history of elcatonin, 48 W): 3.59% | Percentage change in bone density (%), neck of femur ([2]; history of elcatonin, 48 W): 0.72% | Percentage change in bone density (%), proximal femur ([2]; history of elcatonin, 48 W): 3.44% | Percentage change in bone density (%), lumbar spine ([2]; history of elcatonin, 72 W): 5.36% | Percentage change in bone density (%), neck of femur ([2]; history of elcatonin, 72 W): 3.15% | Percentage change in bone density (%), proximal femur ([2]; history of elcatonin, 72 W): 4.41% | Percentage change in bone density (%), lumbar spine ([2]; history of menatetrenone, 24 W): 2.70% | Percentage change in bone density (%), neck of femur ([2]; history of menatetrenone, 24 W): 0.72% | Percentage change in bone density (%), proximal femur ([2]; history of menatetrenone, 24 W): 0.60% | Percentage change in bone density (%), lumbar spine ([2]; history of menatetrenone, 48 W): 3.04% | Percentage change in bone density (%), neck of femur ([2]; history of menatetrenone, 48 W): −3.18% | Percentage change in bone density (%), proximal femur ([2]; history of menatetrenone, 48 W): −0.56% | Percentage change in bone density (%), lumbar spine ([2]; history of menatetrenone, 72 W): 4.32% | Percentage change in bone density (%), neck of femur ([2]; history of menatetrenone, 72 W): −0.78% | Percentage change in bone density (%), proximal femur ([2]; history of menatetrenone, 72 W): −1.40% | Percentage change in bone density (%), lumbar spine [2, 12]: 1.77% | Percentage change in bone density (%), neck of femur [2, 12]: 0.21% | Percentage change in bone density (%), proximal femur [2, 12]: 2.44% | Percentage change in bone density (%), lumbar spine [2, 13]: 4.96% | Percentage change in bone density (%), neck of femur [2, 13]: 1.03% | Percentage change in bone density (%), proximal femur [2, 13]: 2.26% | Percentage change in bone density (%), lumbar spine [2, 14]: 4.59% | Percentage change in bone density (%), neck of femur [2, 14]: −0.51% | Percentage change in bone density (%), proximal femur [2, 14]: 3.03% | Change in lumbar vertebral density (%), mean [2, 15]: 3.9% | Change in lumbar vertebral density (%), median [2, 15]: 3.7% | Change in lumbar vertebral density (%), mean [2, 16]: 6.0% | Change in lumbar vertebral density (%), median [2, 16]: 5.7% | Change in lumbar vertebral density (%), mean ([2]; mild impairment (≧50-<80), after 72 W): 6.3% | Change in lumbar vertebral density (%), mean [2, 17]: 5.8% | Change in lumbar vertebral density (%), median [2, 17]: 5.4% | Change in lumbar vertebral density (%), mean [2, 18]: 3.7% | Change in lumbar vertebral density (%), median [2, 18]: 3.5% | Change in lumbar vertebral density (%), mean [2, 19]: 4.9% | Change in lumbar vertebral density (%), median [2, 19]: 3.8% | Change in lumbar vertebral density (%), mean [2, 20]: 6.1% | Change in lumbar vertebral density (%), median [2, 20]: 6.3% | Change in lumbar vertebral density (%), mean [2, 21]: 5.6% | Change in lumbar vertebral density (%), median [2, 21]: 4.9% | Change in lumbar vertebral density (%), mean ([2]; normal (≧80), after 24 W): 4.3% | Change in lumbar vertebral density (%), median ([2]; normal (≧80), after 24 W): 5.1% | Change in lumbar vertebral density (%), mean ([2]; normal (≧80), after 48 W): 5.4% | Change in lumbar vertebral density (%), median ([2]; normal (≧80), after 48 W): 5.6% | Change in lumbar vertebral density (%), mean ([2]; normal (≧80), after 72 W): 8.1% | Change in lumbar vertebral density (%), median ([2]; normal (≧80), final): 5.6% | Change in bone density (%), lumbar spine ([2]; 24 W): 3.50% | Change in bone density (%), neck of femur ([2]; 24 W): 2.53% | Change in bone density (%), proximal femur ([2]; 24 W): 2.46% | Change in bone density (%), lumbar spine ([2]; 48 W): 5.97% | Change in bone density (%), neck of femur ([2]; 48 W): 2.79% | Change in bone density (%), proximal femur ([2]; 48 W): 3.39% | Change in bone density (%), lumbar spine ([2]; 72 W): 6.82% | Change in bone density (%), neck of femur ([2]; 72 W): 2.44% | Change in bone density (%), proximal femur ([2]; 72 W): 3.06% | Maximum section modulus (SM (Z min)), change from baseline after 48 weeks (%) ([3]; neck of femur): 3.43% | Maximum section modulus (SM (Z min)), change from baseline after 72 weeks (%) ([3]; neck of femur): 1.87% | Volume bone mineral density (cortical bone) [vBMD cortical], change from baseline after 48 weeks (%) ([3]; neck of femur): −0.77% | Volume bone mineral density (cortical bone) [vBMD cortical], change from baseline after 72 weeks (%) ([3]; neck of femur): −1.14% | Volume bone mineral density (total) [vBMD total], change from baseline after 48 weeks (%) ([3]; neck of femur): 0.92% | Volume bone mineral density (total) [vBMD total], change from baseline after 72 weeks (%) ([3]; neck of femur): 0.15% | Maximum section modulus (SM (Z min)), change from baseline after 48 weeks (%) ([3]; shaft of femur): 1.28% | Maximum section modulus (SM (Z min)), change from baseline after 72 weeks (%) ([3]; shaft of femur): 2.69% | Volume bone mineral density (cortical bone) [vBMD cortical], change from baseline after 48 weeks (%) ([3]; shaft of femur): 0.59% | Volume bone mineral density (cortical bone) [vBMD cortical], change from baseline after 72 weeks (%) ([3]; shaft of femur): 0.18% | Volume bone mineral density (total) [vBMD total], change from baseline after 48 weeks (%) ([3]; shaft of femur): 1.03% | Volume bone mineral density (total) [vBMD total], change from baseline after 72 weeks (%) ([3]; shaft of femur): 1.25% | Maximum section modulus (SM (Z min)), change from baseline after 48 weeks (%) ([3]; trochanter): 5.19% | Maximum section modulus (SM (Z min)), change from baseline after 72 weeks (%) ([3]; trochanter): 3.20% | Volume bone mineral density (cortical bone) [vBMD cortical], change from baseline after 48 weeks (%) ([3]; trochanter): −0.49% | Volume bone mineral density (cortical bone) [vBMD cortical], change from baseline after 72 weeks (%) ([3]; trochanter): −1.49% | Volume bone mineral density (total) [vBMD total], change from baseline after 48 weeks (%) ([3]; trochanter): 1.36% | Volume bone mineral density (total) [vBMD total], change from baseline after 72 weeks (%) ([3]; trochanter): 0.95% | Hypercalcemia during the administration period [4]: did not cause hypercalcemia at either dose | Adverse events: point estimate of the difference (PTH200 group vs P group) [5]: 2.0
